In this experiment the test system is Culex quinquefasciatus. Nature of the experiment: K & D Module Repellency Test (Complete Protection Time on volunteer's arm). It is filed as in vivo. Conditions: Table 2; for Avg Duration: active package only in water/isopropanol, 100% repellency threshold (CPT). An excerpt:
Efficacy, Duration, and Percent Repellency: The primary method used to assess the efficacy and duration of an insect repellent is the “Arm-in-Cage Test”. The term “duration” as used herein refers to the time between (1) the application of the insect repellent composition and (2) when the subject first drops below the applicable minimum percent repellency threshold. For all of the testing methodologies used herein, the minimum threshold value for “percent repellency” at which the measurement for duration is cutoff is at least (≥) 90% repellency. For some testing methodologies used herein (such as the “Arm-in-Cage Test”), the minimum threshold value for “percent repellency” was 90% repellency. For other testing methodologies used herein (such as the “K & D Module Repellency Test”), the minimum threshold value for percent repellency was 100% repellency. When a duration is measured using a minimum threshold of 100% repellency, the duration may also be referred to as “Complete Protection Time” (CPT).
Another method that may be used to assess the insect repellent efficacy of an insect repellent composition is the “K & D Module Repellency Test.” The insect repellent efficacy is measured using a minimum repellency threshold of 100% repellency, which may also be referred to as the Complete Protection Time (CPT) of an insect repellent composition, which is the time period between the application of the insect repellent composition and the first insect landing.
In the K & D Module Repellency Test the test volunteer used a marker and a template, representing the base and the 3 cm.×4 cm. openings of the K & D module, to mark skin areas of his/her arm which were then treated with different insect repellent compositions at a skin dose of 0.0017 grams/cm^2 against the insect (in this case, Culex quinquefasciatus). The rectangular marks on the volunteer's arm represented where the six cells of the K & D module were positioned on the volunteer's arm. Each cell of the K & D module was filled with ten mated female mosquitoes (Culex quinquefasciatus), and the floor slide was removed from each cell to expose all mosquitoes to all skin treatments. The time between removing the floor slide of each cell and the first mosquito from the cell landing is recorded as the CPT.

For `CC(C)=CCC/C(C)=C/CO` [CE36, geraniol], the “Avg Duration” value was 0.8 h. Also, the “Avg Duration” value (skin dose 0.0017 grams/cm^2) was 0.833 h. Moreover, for the setting “active package only”, the “Duration (Min) (Time of confirmation land) Subject 1” value came to 30 min, the “Duration (Min) (Time of confirmation land) Subject 2” value was 60 min and the “Duration (Min) (Time of confirmation land) Subject 3” value turned out to be 60 min.

`C=CCc1ccc(O)c(OC)c1` [CE17, eugenol]: the “Avg Duration” value is 1.7 h. For the same compound, the “Avg Duration” value (skin dose 0.0017 grams/cm^2) is 1.67 h. For the same compound, for the setting “active package only”, the “Duration (Min) (Time of confirmation land) Subject 1” value was 60 min, the “Duration (Min) (Time of confirmation land) Subject 2” value amounted to 120 min and the “Duration (Min) (Time of confirmation land) Subject 3” value worked out at 120 min. Besides, the “Duration (Min) (Time of confirmation land) Subject 4” value (active package only, Subject 4) was 100 min.

Values taken from patent US12310372B1, “Water-based insect repellent composition” (priority 2022, dated 2025).
